# Test results reported in US20220009920A1 (GB005, Inc., priority 2020, published 2022).
# Tests used:
# Test in all cases: Large panel kinase profiling
# Assay type in all cases: biochemical
# Settings in all cases: 1 μM test article, 1 mM ATP
# AURKA/AURA = target: T1, AURKA/AURA (Homo sapiens, UniProt O14965)
# T1 sequence (O14965 1-403): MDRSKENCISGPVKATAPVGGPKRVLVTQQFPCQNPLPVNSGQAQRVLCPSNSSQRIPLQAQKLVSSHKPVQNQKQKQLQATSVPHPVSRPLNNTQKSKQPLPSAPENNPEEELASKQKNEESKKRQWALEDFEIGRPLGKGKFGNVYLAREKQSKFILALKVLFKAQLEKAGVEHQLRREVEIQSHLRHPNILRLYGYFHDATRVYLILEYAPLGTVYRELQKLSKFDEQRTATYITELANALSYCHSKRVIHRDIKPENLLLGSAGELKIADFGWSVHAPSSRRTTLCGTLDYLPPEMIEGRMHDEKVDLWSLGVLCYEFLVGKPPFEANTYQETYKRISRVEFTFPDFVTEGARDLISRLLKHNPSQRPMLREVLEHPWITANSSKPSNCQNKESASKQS
# Procedure, shortened: (§1)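 Continuous-read kinase assay: chelation-sensor peptide, 1 mM ATP, compound at 1 μM. Plates kept at 30° C.; fluorescence sampled at 1-min intervals (360/485 nm).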
# CAMK1D = CAMK1D (Homo sapiens, UniProt Q8IU85)
# Sequence of CAMK1D (Q8IU85 whole entry): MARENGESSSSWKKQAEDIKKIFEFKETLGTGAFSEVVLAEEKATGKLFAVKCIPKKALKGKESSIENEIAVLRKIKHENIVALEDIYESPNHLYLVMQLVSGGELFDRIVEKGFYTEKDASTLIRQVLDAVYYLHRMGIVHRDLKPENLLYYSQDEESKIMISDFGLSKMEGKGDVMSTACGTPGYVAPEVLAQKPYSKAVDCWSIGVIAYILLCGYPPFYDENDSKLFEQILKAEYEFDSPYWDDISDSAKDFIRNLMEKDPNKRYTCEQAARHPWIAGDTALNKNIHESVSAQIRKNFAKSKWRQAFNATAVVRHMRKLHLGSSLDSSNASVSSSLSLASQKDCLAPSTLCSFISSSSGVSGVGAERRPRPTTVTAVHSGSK
# Procedure, shortened: as §1
# CAMK2D = target: T2, CAMK2D (Homo sapiens, UniProt Q13557)
# T2 construct: AssayQuant Technologies, Inc. (ran the panel)
# T2 sequence (Q13557 whole entry, species assumed): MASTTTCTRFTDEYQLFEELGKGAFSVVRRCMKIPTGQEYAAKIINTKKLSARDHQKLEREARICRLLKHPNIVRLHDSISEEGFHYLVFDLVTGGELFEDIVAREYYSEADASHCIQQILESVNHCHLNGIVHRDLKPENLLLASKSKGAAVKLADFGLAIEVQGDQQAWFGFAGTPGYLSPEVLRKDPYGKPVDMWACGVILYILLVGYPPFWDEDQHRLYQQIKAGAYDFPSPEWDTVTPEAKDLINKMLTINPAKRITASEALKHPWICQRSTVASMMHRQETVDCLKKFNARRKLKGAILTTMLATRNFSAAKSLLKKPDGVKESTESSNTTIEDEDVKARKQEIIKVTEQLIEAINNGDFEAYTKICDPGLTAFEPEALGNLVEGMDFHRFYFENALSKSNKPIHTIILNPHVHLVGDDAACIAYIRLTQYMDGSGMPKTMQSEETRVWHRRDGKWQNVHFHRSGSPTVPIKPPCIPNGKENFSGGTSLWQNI
# Procedure, shortened: as §1
# CDK5/P35 = target: T3, CDK5/P35 (Homo sapiens, UniProt Q00535)
# T3 construct: AssayQuant Technologies, Inc. (ran the panel)
# T3 sequence (Q00535 whole entry, species assumed): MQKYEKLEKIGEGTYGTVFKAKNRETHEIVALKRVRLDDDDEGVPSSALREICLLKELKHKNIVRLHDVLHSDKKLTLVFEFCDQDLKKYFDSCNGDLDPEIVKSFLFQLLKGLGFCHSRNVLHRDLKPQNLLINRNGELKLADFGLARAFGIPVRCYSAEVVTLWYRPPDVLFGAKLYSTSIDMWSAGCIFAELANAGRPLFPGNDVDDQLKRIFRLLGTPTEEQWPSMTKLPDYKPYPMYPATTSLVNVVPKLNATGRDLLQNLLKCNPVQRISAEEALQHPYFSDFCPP
# T3 sequence (Q15078 2-307 partner limits assumed, species assumed): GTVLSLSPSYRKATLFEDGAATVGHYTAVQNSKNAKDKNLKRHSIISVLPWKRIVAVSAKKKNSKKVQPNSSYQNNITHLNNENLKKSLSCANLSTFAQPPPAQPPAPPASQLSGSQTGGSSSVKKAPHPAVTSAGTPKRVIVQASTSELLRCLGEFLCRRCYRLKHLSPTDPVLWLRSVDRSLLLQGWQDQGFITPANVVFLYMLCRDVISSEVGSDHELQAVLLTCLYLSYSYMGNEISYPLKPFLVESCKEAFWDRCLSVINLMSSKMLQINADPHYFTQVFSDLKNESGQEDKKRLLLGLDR
# Procedure, shortened: as §1
# DYRK2 = target: T4, DYRK2 (Homo sapiens, UniProt Q92630)
# T4 construct: AssayQuant Technologies, Inc. (service laboratory)
# T4 sequence (Q92630 1-601): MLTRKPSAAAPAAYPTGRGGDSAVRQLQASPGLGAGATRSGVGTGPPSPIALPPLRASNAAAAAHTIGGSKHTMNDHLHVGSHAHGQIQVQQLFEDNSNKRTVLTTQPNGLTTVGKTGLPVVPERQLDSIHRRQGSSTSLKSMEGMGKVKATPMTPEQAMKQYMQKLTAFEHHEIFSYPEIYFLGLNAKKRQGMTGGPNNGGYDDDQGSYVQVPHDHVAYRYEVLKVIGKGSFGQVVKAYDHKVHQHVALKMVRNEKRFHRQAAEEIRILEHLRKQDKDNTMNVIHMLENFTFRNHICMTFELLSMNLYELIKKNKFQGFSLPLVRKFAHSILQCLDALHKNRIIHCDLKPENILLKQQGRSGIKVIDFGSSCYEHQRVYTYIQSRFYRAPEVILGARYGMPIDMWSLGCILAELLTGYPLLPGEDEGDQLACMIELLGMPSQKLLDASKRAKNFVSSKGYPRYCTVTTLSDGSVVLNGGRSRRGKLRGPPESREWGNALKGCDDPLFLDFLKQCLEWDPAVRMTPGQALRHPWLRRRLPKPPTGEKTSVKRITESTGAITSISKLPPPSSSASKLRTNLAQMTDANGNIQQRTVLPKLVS
# Procedure, shortened: as §1
# MYLK/MLCK = target: T5, MYLK/MLCK (Homo sapiens, UniProt Q15746)
# T5 construct: AssayQuant Technologies, Inc. (assay service)
# Procedure, shortened: as §1
# PRKCE/PKCE = target: T6, PRKCE/PKCE (Homo sapiens, UniProt Q02156)
# T6 sequence (Q02156 1-737): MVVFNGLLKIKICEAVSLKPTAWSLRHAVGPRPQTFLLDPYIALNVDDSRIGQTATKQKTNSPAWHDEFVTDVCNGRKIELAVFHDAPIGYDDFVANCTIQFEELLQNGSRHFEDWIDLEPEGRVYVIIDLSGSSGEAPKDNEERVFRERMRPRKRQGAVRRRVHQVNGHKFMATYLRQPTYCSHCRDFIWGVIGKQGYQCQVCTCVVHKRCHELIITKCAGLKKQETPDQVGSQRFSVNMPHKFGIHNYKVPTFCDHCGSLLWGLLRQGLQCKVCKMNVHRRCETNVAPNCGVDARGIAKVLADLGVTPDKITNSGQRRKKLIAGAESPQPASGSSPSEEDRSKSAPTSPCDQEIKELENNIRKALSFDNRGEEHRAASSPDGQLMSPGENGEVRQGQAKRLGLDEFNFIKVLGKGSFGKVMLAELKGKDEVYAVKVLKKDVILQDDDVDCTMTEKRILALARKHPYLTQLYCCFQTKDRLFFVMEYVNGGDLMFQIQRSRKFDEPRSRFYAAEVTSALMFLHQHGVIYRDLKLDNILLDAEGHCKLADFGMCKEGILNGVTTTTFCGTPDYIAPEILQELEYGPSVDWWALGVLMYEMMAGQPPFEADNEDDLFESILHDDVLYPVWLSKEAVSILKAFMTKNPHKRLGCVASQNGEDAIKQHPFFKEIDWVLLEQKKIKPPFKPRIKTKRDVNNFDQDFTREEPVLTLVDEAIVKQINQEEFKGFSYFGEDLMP
# Procedure, shortened: as §1
# YES = target: T7, YES (Homo sapiens, UniProt P07947)
# T7 construct: AssayQuant Technologies, Inc. (contract laboratory that ran the panel)
# T7 sequence (P07947 whole entry, species assumed): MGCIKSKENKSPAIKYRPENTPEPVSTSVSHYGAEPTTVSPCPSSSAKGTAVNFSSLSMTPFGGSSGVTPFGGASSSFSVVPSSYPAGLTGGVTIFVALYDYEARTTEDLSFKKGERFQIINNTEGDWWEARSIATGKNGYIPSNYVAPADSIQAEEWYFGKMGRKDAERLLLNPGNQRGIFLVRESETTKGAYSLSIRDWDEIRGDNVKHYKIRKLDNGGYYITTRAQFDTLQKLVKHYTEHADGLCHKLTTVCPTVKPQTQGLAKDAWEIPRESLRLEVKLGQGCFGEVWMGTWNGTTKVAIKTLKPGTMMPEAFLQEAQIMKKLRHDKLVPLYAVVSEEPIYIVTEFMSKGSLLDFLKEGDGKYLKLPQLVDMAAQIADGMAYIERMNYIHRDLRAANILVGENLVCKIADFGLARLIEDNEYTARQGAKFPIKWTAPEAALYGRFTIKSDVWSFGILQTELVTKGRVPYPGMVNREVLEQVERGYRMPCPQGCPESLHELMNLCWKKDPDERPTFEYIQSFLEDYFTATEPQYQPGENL
# Procedure, shortened: as §1
SMILES,inhibition at 1 µM (AURKA/AURA),inhibition at 1 µM (CAMK1D),inhibition at 1 µM (CAMK2D),inhibition at 1 µM (CDK5/P35),inhibition at 1 µM (DYRK2),inhibition at 1 µM (MYLK/MLCK),inhibition at 1 µM (PRKCE/PKCE),inhibition at 1 µM (YES)
"C=CC(=O)N1CCCC(c2c(F)cc(C(N)=O)c3[nH]c4c(c23)CCCCC4)C1 (single isomer, unassigned) [Compound 5-6]",-42%,19.6%,1.1%,-13.2%,6.1%,19.7%,-3.2%,8.8%
"C=CC(=O)N1CCC[C@@H](c2c(F)cc(C(N)=O)c3[nH]c4c(c23)CC2(CC4)CC2)C1 [Compound 6-2, (S)-5-(1-acryloylpiperidin-3-yl)-6-fluoro-1,2,4,9-tetrahydrospiro[carbazole-3,1′-cyclopropane]-8-carboxamide]",-24.7%,26.1%,8.4%,-37.5%,13.3%,-24%,0%,27%
"C=CC(=O)N1CCC[C@@H](c2c(F)cc(C(N)=O)c3[nH]c4c(c23)CCC4)C1 [Compound 10-2, (S)-8-(1-acryloylpiperidin-3-yl)-7-fluoro-1,2,3,4-tetrahydrocyclo-penta[b]indole-5-carboxamide]",-12.1%,10.5%,-10.7%,2.9%,0.3%,-27.4%,-3.5%,23.9%
